B1: region 161-243: region of GAD 65, residues 161-243, tested as overlapping peptides (peptide, UniProt Q05329 161-243, looked up, fragment)
chain: MHCQTTLKYAIKTGHPRYFNQLSTGLDMVGLAADWLTSTANTNMFTYEIAPVFVLLEYVTLKKMREIIGWPGGSGDGIFSPGG
modifications: tested as overlapping peptides
notes: region of GAD 65, residues 161-243, tested as overlapping peptides

Columns and labels:
[1] = tested on: T cells from transgenic NOD mice expressing the human DQβ1*0302 gene; assay: Proliferation of T cells from transgenic NOD mice expressing human DQβ1*0302; format: cell-based; details: T cells from DQβ1*0302 transgenic NOD mice
From the text: Type 1 diabetes is associated with the HLA DQβ1*0302 allele (Nepom and Erlich, Ann. Rev. Immunol. 9:493-525, 1991). Transgenic NOD mice expressing the human DQβ1*0302 gene were constructed. […] Thus, these peptides are recognized by T cells in the context of DQβ1*0302 and are additional peptides suitable for use in the present invention.

[2] = tested on: T cells from Type 1 diabetic patients and healthy controls; assay: T cell proliferation assay with GAD 65 peptides (epitope mapping in patients, controls, co-twins); format: cell-based, human; details: patients compared with controls
Procedure: FIG. 2 is a graph illustrating the T cell proliferative responses to peptides corresponding to various regions of GAD 65. Responses to peptides (5 μg/ml) in 5-7 Type 1 diabetic patients (solid bars) and 4-5 healthy controls (hatched bars) are expressed by the number of responders (y-axis). Background counts were normally between 600 and 3000 cpm, while positive wells had to exceed 1500 and 6000 cpm respective to background counts.
A major focus of research into autoimmunity is the identification of dominant epitopes on disease-associated auto-antigens recognized by autoreactive T cells. Immunodominant regions of the antigen GAD 65 have been identified in Type 1 diabetic patients (Lohmann et al., Lancet 343:1607-08, 1994; Atkinson et al., J Clin. Invest. 94:2125-2129, 1994). Within the subject invention, a detailed T cell epitope mapping of immunodominant regions in patients with Type 1 diabetes was performed. Two regions of GAD 65 were selected for decoding, representing the regions associated with the highest frequency of T cell responses in both Type 1 diabetics (amino acid residues 473-555 and 161-243) and control subjects (amino acid residues 161-243) (FIGS. 2 and 4). Nine diabetics who responded to region 473-555 were selected for further study of their response to 18 single peptides covering this region. […]

| Molecule | proliferation of T cells [1] | recognition by T cells of Type 1 diabetic patients versus controls [2] |
| --- | --- | --- |
| GAD 65 native protein: 65 kD isoform of human glutamic acid decarboxylase, native protein | stimulated to proliferate |  |
| B1 |  | recognized by T cells from both normals and IDDM patients |

From patent US5945401A, “Peptide analogues of the 65KD isoform of human glutamic acid decarboxylase and uses thereof” (priority 1995, dated 1999)
